Experimental data reported in US4753938A, “Condensed as-triazine derivatives” (Richter Gedeon Vegyeszeti Gyar Rt., priority 1983, dated 1988).

What was measured:
[1] = system: tetrabenazine ptosis on mice; test: Antagonism of tetrabenazine ptosis on mice, p.o.; assay type: in vivo; details: for ED50: Mus musculus, po, 0.5 h, 50 mg./kg. tetrabenazine i.p. 30 minutes later
Protocol: (§1) (2) Antagonism of Tetrabenazine ptosis on mice and rats, p.o. […] The results are evaluated as follows: on the basis of all the measured data an average ptosis is calculated for each group and the deviation from the average of the control group is expressed in percents (inhibition). The ED50 values are calculated from the data thus obtained.

[2] = system: yohimbine toxicity on mice; test: Potentiation of yohimbine toxicity on mice (method of Quinton); assay type: in vivo; details: for ED50: Mus musculus, ip, read-out: ED50, potentiation of yohimbine toxicity; for Ther. index, potentiation of yohimbine toxicity: mice
Protocol: (5) Potentiation of yohimbine toxicity on mice
The tests are carried out according to the method of Quinton. Animal groups consisting of 10 mice each are treated with the test compound. After an hour a sublethal dose of yohimbine is administered intraperitoneally at a rate of 20 ml./kg. The killed animals are counted after 1 and 24 hours, respectively.

reserpine ptosis on mice = test: Antagonism of reserpine ptosis on mice, p.o.; assay type: in vivo; details: for ED50: Mus musculus, po, 1 h, 60 minutes after 6 mg./kg. reserpine s.c.
Protocol: (3) Antagonism of reserpine ptosis on mice, p.o. Animal groups consisting of 10 mice each are treated subcutaneously with 6 mg./kg. of reserpine. The test compound is administered orally after 60 minutes. The animals showing a ptosis are counted after 60 and 120 minutes. The evaluation is carried out as described in connection with the previous ptosis test No. 2.

[3] = system: aconitine-induced ECG changes in rats; test: Antiarrhythmial effect on rats (aconitine, modified method of Marmo et al.); assay type: in vivo; details: aconitine 75 μg./kg. i.v.
Protocol: (6) Antiarrhythmial effect on rats
The test is carried out according to the modified method of Marmo et al. The test animals are narcotized with ethyl urethane (1.2 g./kg. i.p.). Aconitine is administered intravenously in the form of a bolus injection in a dose of 75 μg./kg. The changes of ECG are followed in standard II outlet 5 minutes after the administration of aconitine. The changes observed are evaluated with the aid of a scale from 0 to 5 points. The test compound is administered either intravenously 2 minutes before the addition of aconitine, or orally 1 hour before the aconitine administration.

reserpine ptosis on rats = test: Antagonism of reserpine ptosis on rats, p.o.; assay type: in vivo; details: Rattus norvegicus, po, 1 h, 60 minutes after 2.5 mg./kg. reserpine s.c.
Protocol: (4) Antagonism of reserpine ptosis on rats, p.o. […] The animals showing ptosis are counted until the effect decreases. The evaluation is carried out as described in connection with the previous ptosis test (test 2).

[4] = system: tetrabenazine ptosis on rats; test: Antagonism of tetrabenazine ptosis on rats, p.o.; assay type: in vivo; details: Rattus norvegicus, po
Protocol: as §1

[5] = Acute toxicity on mice, oral (LD50, Litchfield-Wilcoxon, 7 days observation); details: mouse, in vivo
Protocol: (1) Acute toxicity on mice
The test is carried out on male and female white mice belonging to the CFLP strain and weighing 18-22 g. The test compound is administered orally and the animals are observed for a period of 7 days. In the groups for each dose half of the animals are male and the other half are female. The animals are kept in a plastic box (39×12×12 cm) on scrapings litter at room temperature. The mice receive standard fodder and tap water ad libitum. The toxicity data are determined by the method of Litchfield-Wilcoxon.
The test compounds are used in a suspension formed with 0.5% carboxymethyl cellulose.

[6] = system: tremorine-induced tremor in mice; test: Antitremorine effect on mice; assay type: in vivo
Protocol: (7) Antitremorine effect on mice 20 mg./kg. of tremorine are administered i.p. to mice whereupon after 45 minutes the induced characteristic tremor is registered. The test compounds are administered orally 1 hour before the addition of tremorine.

SMILES	Ther. index, tetrabenazine ptosis [1]	ED50 [2] [mg/kg]	Ther. index, potentiation of yohimbine toxicity [2]	Ther. index, reserpine ptosis (reserpine ptosis on mice)	ED50 (reserpine ptosis on mice) [mg/kg]	ED50 [1] [mg/kg]	Inhibition, antiarrhythmial effect ([3]; dose 1 mg./kg.) [%]	ED50 (reserpine ptosis on rats) [mg/kg]	ED50 [4] [mg/kg]	LD50 at 168 h [5] [mg/kg]	ED50 ([6]; Mus musculus, po, p.o. 1 hour before tremorine 20 mg./kg. i.p.) [mg/kg]	Ther. index, antitremorine effect ([6]; p.o.)	LD50 at 168 h ([5]; mice, p.o., 7 days observation) [mg/kg]	Inhibition, antiarrhythmial effect ([3]; dose 4 mg./kg.) [%]	ED50, antitremorine effect ([6]; p.o. 1 hour before tremorine 20 mg./kg. i.p.)
CN(C)CCC=C1c2ccccc2CCc2ccccc21 [Amitriptyline, N,N-dimethyl-3-[dibenzo[a,d]-cycloheptadiene-5-ylidene]propylamine, reference compound]	19	12.5	18	3.45	65	–	–	–	–	–	–	–	–	–	–
OC1(c2ccc(Cl)cc2)[N-]C=N[n+]2ccc3ccccc3c21 (stereo not drawn) [Compound A, 1-(4-chloro-phenyl)-1-hydroxy-as-triazino[6,1-a]isoquinoline-5-ium-2-(1H)-ide]	3667	5	110	19.6	28	0.15	39.6	28	7	550	–	–	–	–	–
COC1(c2ccc(Cl)cc2)[N-]C=N[n+]2ccc3ccccc3c21 (stereo not drawn) [Compound B, 1-(4-chloro-phenyl)-1-methoxy-as-triazino[6,1-a]isoquinoline-5-ium-2-(1H)-ide]	1680	1.2	350	280.0	1.5	0.25	44.3	34	0.6	420	40	10.5	–	–	–
O=c1nc(-c2ccc(Cl)cc2)c2c3ccccc3cc[n+]2[n-]1 [Compound C, 1-(4-chloro-phenyl)-as-triazino[6,1-a]isoquinoline-5-ium-2-(1H)-ide-3-one]	87	–	–	–	–	23	–	–	–	–	–	–	2000	–	–
CCN(CC)CC(=O)Nc1c(C)cccc1C [Lidocain, α-diethylamino-2,6-dimethyl-acetanilide, reference compound]	–	–	–	–	–	–	–	–	–	–	–	–	–	23.4	–
Clc1ccc(-c2ncn[n+]3ccc4ccccc4c23)cc1 [Reference compound D, 1-(4-chloro-phenyl)-as-triazino[6,1-a]isochinolinium-bromide, reference compound]	188	–	–	below 5.0	> 120	–	–	60	–	–	–	–	–	–	inactive
